{
  "source": "patent US12150940B2",
  "about": "“WASp-protecting small molecules, compositions, methods and uses thereof in the treatment of innate and acquired immune-related disorders or conditions” (BAR ILAN UNIVERSITY, priority 2016, dated 2024)",
  "key": {"[1]": {"test_system": "WAS−/−/WASp R86C Jurkat T-cells", "experiment": "Lymphocyte migration on ICAM-1/SDF-1α, WAS−/−/WASp R86C cells", "format": "cell-based, human", "experimental": "(§1) WASp knockout Jurkat T-cell lines that express only exogenous YFP-WASp R86C (WAS^−/−/WASp R86C) or Y107C (WAS^−/−/WASp Y107C) were pretreated with SMC #34 in comparison to cells treated with the control. Cells that completely lack WASp expression (WAS^−/−) were also treated with the control. Cellular migration was tracked over a 20-min period on ICAM-1/SDF-1α-coated cover glasses, as described in Experimental procedures.\n(§2) Approximately 1×10^5 lymphocytes were seeded over chambered coverslips (LabTek) pre-coated with 6 μg/ml ICAM-1 and 2 μg/ml SDF-1α. Cells were incubated at 37° C., 5% CO2 and DIC images were acquired with the Zeiss Observer Z1 inverted microscope every 5 s for 20 min under a 20× objective lens using Zen software. The random movement (Displacement and velocity) of the cells was automatically tracked and analyzed using TrackMate plugin of ImageJ software. An individual trace was assigned to each of the analyzed cells."}, "[2]": {"test_system": "WAS−/−/WASp Y107C Jurkat T-cells", "experiment": "Lymphocyte migration on ICAM-1/SDF-1α, WAS−/−/WASp Y107C cells", "format": "cell-based, human", "experimental": "as §1, §2"}, "WAVE2": {"biological_target": "T1, WAVE2 (Homo sapiens, UniProt Q9Y6W5)", "T1 construct": "expressed in transfected cells; host or cells: HEK 293T, transient transfection; unpurified cell lysate", "T1 sequence (Q9Y6W5 whole entry, species assumed)": "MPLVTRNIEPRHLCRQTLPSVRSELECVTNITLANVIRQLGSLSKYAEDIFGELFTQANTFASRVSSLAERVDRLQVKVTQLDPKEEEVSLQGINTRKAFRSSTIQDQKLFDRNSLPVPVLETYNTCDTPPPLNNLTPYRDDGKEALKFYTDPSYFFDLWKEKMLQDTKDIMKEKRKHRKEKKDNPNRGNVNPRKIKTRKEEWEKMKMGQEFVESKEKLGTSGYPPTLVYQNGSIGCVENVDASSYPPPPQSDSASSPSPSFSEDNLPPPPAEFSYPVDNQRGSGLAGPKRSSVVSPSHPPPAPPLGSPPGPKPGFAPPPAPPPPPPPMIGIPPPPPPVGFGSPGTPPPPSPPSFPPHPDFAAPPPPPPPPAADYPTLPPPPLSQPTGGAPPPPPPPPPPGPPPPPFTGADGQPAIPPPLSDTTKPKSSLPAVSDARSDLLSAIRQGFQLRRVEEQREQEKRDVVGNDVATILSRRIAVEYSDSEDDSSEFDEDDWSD", "experiment": "MST binding, YFP-WAVE2 in HEK 293T cell lysate", "experimental": "Diluted cell lysates of YFP-WASp/N-WASp/WAVE2-expressing HEK 293T cells were incubated with serially-diluted (100 μM-3 nM) SMCs. The mixed lysates and SMCs were then loaded into standard-treated Monolith™ capillaries and the fluorescence of the samples was measured by the Monolith NT.115 instrument at 60% MST power. Binding curves of WASp with SMC #6 (FIG. 3A), SMC #30 (FIG. 3B), SMC #33 (FIG. 3C), SMC #34 (FIG. 3D) and Y-27632 (FIG. 3E) or of N-WASp (FIG. 3F) or WAVE2 (FIG. 3G) with SMC #34 were generated by the NanoTemper Analysis 2.231 software. Normalized fluorescence (hot fluorescence/initial fluorescence) is plotted as a function of SMC concentration. […]\nYFP-tagged WASp was obtained from cell lysates of Human Embryonic Kidney (HEK) 293T, transiently transfected with YFP-WASp/WAVE2/N-WASp by DNA-calcium phosphate co-precipitation as previously described (Reicher et al, 2012). […] After loading into the instrument (Monolith NT.115, NanoTemper), the samples were measured by standard protocols at 60% MST power. […] KD values were determined using the NanoTemper analysis software (NT Analysis 1.5.37 or 2.2.31).\nFollowing this in silico screening, the inventors identified eight SMCs (#6, #23, #24, #25, #30, #32, #33, #34, see Table 1). […] The SMCs that specifically bind the degradation pocket of WASp were further evaluated by the inventors."}},
  "data": [
    {"smiles": "CC1CCCC(C)N1C(=O)CSc1nnc(COc2cccc3cccnc23)o1", "note": "(centres unmarked) [SMC #34, 1-(2,6-dimethylpiperidin-1-yl)-2-[[5-(quinolin-8-yloxymethyl)-1,3,4-oxadiazol-2-yl]sulfanyl]ethanone]", "values": [
      {"measurement": "migration", "setting": "[1]; WAS−/−/WASp R86C cells, vs control", "value": "significantly increased"},
      {"measurement": "mean cell displacement", "setting": "[1]; WAS−/−/WASp R86C, 20 min, mean ± SE", "value": "53.65±4.88"},
      {"measurement": "migration", "setting": "[2]; WAS−/−/WASp Y107C cells, vs control", "value": "significantly increased"},
      {"measurement": "mean cell displacement", "setting": "[2]; WAS−/−/WASp Y107C, 20 min, mean ± SE", "value": "74.24±8.16"},
      {"measurement": "binding to WAVE2", "setting": "WAVE2", "value": "no binding"}
    ]}
  ]
}
